Assay results as given in US20230257351A1, “SUBSTITUTED N-[…] HAVING P2X4 RECEPTOR ANTAGONISTIC ACTIVITY” (Bayer Aktiengesellschaft, priority 2020, published 2023).

Biological target: T1, human P2X4 (Homo sapiens, UniProt Q99571)
T1 construct: expressed in transfected cells
T1 sequence (Q99571 1-388): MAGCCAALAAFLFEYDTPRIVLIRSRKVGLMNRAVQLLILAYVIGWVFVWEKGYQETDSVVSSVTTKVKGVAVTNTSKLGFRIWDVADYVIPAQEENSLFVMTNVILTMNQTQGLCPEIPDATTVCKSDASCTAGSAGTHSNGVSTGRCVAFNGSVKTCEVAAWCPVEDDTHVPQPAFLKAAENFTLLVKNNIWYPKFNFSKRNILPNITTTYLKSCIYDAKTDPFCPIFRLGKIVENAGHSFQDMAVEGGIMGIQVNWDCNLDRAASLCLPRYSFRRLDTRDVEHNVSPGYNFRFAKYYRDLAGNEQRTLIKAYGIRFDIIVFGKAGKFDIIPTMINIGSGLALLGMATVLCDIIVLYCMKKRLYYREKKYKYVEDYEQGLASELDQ
Assay: Human P2X4 HEK Cell FLIPR Assay
Format: cell-based
Conditions: HEK293 stably expressing human P2X4, agonist Bz-ATP 3 μM (EC80); for IC50: read-out: Human P2X4 HEK Cells (FLIPR Assay) avg IC50
Protocol: Compounds were tested on a HEK293 cell line stably expressing human P2X4. Cells were cultured on poly-D-lysine-coated 384-well plates at a density of 15,000 cells/well and incubated overnight at 37° C., 5% CO2. P2X4 function was assessed by measuring intracellular calcium fluxes caused by Benzoylbenzoyl-ATP (Bz-ATP) using the calcium-chelating dye Fluo8-AM (Molecular Devices) with the Fluorescent Imaging Plate Reader Tetra (FLIPR^Tetra; Molecular Devices CA). On the day of the assay, the medium was removed and the cells were incubated for 30 min at 37° C. and 5% CO2 in 30 μl of dye buffer (Hank's balanced salt solution, 10 mM HEPES, 1.8 mM CaCl2, 1 mM MgCl2, 2 mM probenecid, 5 mM D-glucose monohydrate, 5 μM Fluo8-AM, pH=7.4). Compounds diluted in probenecid buffer (Hank's balanced salt solution, 10 mM HEPES, 1.8 mM CaCl2, 1 mM MgCl2, 2 mM probenecid, 5 mM D-glucose monohydrate, pH=7.4) at ten concentrations ranging from 25 μM to 1 nM (final concentration) were dispensed and incubated for 30 min at room temperature. […] The final assay volume was 50 μl and final DMSO concentration was 0.5%.
The fluorescence intensity reflecting intracellular calcium changes was recorded before and after Bz-ATP addition, at an excitation and emission wavelengths of 470-495 nm and 515-575 nm respectively.
The compounds were tested in triplicates and fluorescence intensity raw data normalized to the agonist control and fitted to the four-parameter logistic equation:
Y=Bottom+(Top−Bottom)/(1+10^((Log IC50−X)*HillSlope))
Assay plate acceptance was based on the signal window (S/B)[…] and the reference compound pIC50 within ±3σ the mean of historic pIC50 of the compound. Failure to meet two of the three criteria determined exclusion of the plate's results.

Row | Human P2X4 HEK Cells (FLIPR Assay) avg Efficacy | IC50 | Structure (SMILES)
1 | 97% | 504 nM | CC(=O)N(c1ccc(S(C)(=O)=O)c(F)c1)c1cc(NC(=O)Cc2c(Cl)cccc2Cl)ccn1 [Example 82, N-{4-[2-(2,6-dichlorophenyl)acetamido]pyridin-2-yl}-N-[3-fluoro-4-(methanesulfonyl)phenyl]acetamide]
2 | 97% | 568 nM | CC(=O)N(c1cc(F)c(C)c(F)c1)c1cc(NC(=O)Cc2ccccc2Cl)ccn1 [Example 92, N-{4-[2-(2-chlorophenyl)acetamido]pyridin-2-yl}-N-(3,5-difluoro-4-methylphenyl)acetamide]
3 | 98% | 705 nM | CC(=O)N(c1cc(F)c(C)c(F)c1)c1cc(NC(=O)Cc2ccc(F)cc2Cl)ccn1 [Example 93, N-{4-[2-(2-chloro-4-fluorophenyl)acetamido]pyridin-2-yl}-N-(3,5-difluoro-4-methylphenyl)acetamide]
4 | 97% | 710 nM | CC(=O)N(c1cc(F)c(C)c(F)c1)c1cc(NC(=O)Cc2cccc(F)c2Cl)ccn1 [Example 94, N-{4-[2-(2-chloro-3-fluorophenyl)acetamido]pyridin-2-yl}-N-(3,5-difluoro-4-methylphenyl)acetamide]
5 | 100% | 694 nM | CC(=O)N(c1cc(F)c(C)c(F)c1)c1cc(NC(=O)Cc2c(Cl)cccc2Cl)ccn1 [Example 95, N-{4-[2-(2,6-dichlorophenyl)acetamido]pyridin-2-yl}-N-(3,5-difluoro-4-methylphenyl)acetamide]
6 | 89% | 362 nM | COc1c(F)cc(N(C(C)=O)c2cc(NC(=O)Cc3ccccc3Cl)ccn2)cc1F [Example 96, N-{4-[2-(2-chlorophenyl)acetamido]pyridin-2-yl}-N-(3,5-difluoro-4-methoxyphenyl)acetamide]
7 | 89% | 461 nM | COc1c(F)cc(N(C(C)=O)c2cc(NC(=O)Cc3ccc(F)cc3Cl)ccn2)cc1F [Example 97, N-{4-[2-(2-chloro-4-fluorophenyl)acetamido]pyridin-2-yl}-N-(3,5-difluoro-4-methoxyphenyl)acetamide]
8 | 92% | 296 nM | COc1c(F)cc(N(C(C)=O)c2cc(NC(=O)Cc3cccc(F)c3Cl)ccn2)cc1F [Example 98, N-{4-[2-(2-chloro-3-fluorophenyl)acetamido]pyridin-2-yl}-N-(3,5-difluoro-4-methoxyphenyl)acetamide]
9 | 95% | 449 nM | COc1c(F)cc(N(C(C)=O)c2cc(NC(=O)Cc3c(Cl)cccc3Cl)ccn2)cc1F [Example 99, N-{4-[2-(2,6-dichlorophenyl)acetamido]pyridin-2-yl}-N-(3,5-difluoro-4-methoxyphenyl)acetamide]
10 | 99% | 937 nM | CC(=O)N(c1cccc(OC(F)(F)F)c1)c1cc(NC(=O)Cc2ccccc2Cl)ccn1 [Example 102, N-{4-[2-(2-chlorophenyl)acetamido]pyridin-2-yl}-N-[3-(trifluoromethoxy)phenyl]acetamide]
11 | 97% | 767 nM | COc1cc(N(C(C)=O)c2cc(NC(=O)Cc3cccc(F)c3Cl)ccn2)ccc1F [Example 103, N-{4-[2-(2-chloro-3-fluorophenyl)acetamido]pyridin-2-yl}-N-(4-fluoro-3-methoxyphenyl)acetamide]
12 | 96% | 846 nM | COc1cc(N(C(C)=O)c2cc(NC(=O)Cc3c(Cl)cccc3Cl)ccn2)ccc1F [Example 104, N-{4-[2-(2,6-dichlorophenyl)acetamido]pyridin-2-yl}-N-(4-fluoro-3-methoxyphenyl)acetamide]
13 | 100% | 770 nM | CC(=O)N(c1cc(NC(=O)Cc2cccc(C(F)(F)F)c2Cl)ccn1)c1ccccc1Cl [Example 105, N-(2-chlorophenyl)-N-(4-{2-[2-chloro-3-(trifluoromethyl)phenyl]acetamido}pyridin-2-yl)acetamide]
14 | 95% | 765 nM | CC(=O)N(c1cc(NC(=O)Cc2ccccc2Cl)ccn1)c1ccccc1Cl [Example 106, N-(2-chlorophenyl)-N-{4-[2-(2-chlorophenyl)acetamido]pyridin-2-yl}acetamide]
15 | 98% | 550 nM | CC(=O)N(c1cc(NC(=O)Cc2ccc(F)cc2Cl)ccn1)c1ccccc1Cl [Example 107, N-{4-[2-(2-chloro-4-fluorophenyl)acetamido]pyridin-2-yl}-N-(2-chlorophenyl)acetamide]
16 | 97% | 769 nM | CC(=O)N(c1cc(NC(=O)Cc2cccc(F)c2Cl)ccn1)c1ccccc1Cl [Example 108, N-{4-[2-(2-chloro-3-fluorophenyl)acetamido]pyridin-2-yl}-N-(2-chlorophenyl)acetamide]
17 | 100% | 643 nM | CC(=O)N(c1cc(NC(=O)Cc2c(Cl)cccc2Cl)ccn1)c1ccccc1Cl [Example 109, N-(2-chlorophenyl)-N-{4-[2-(2,6-dichlorophenyl)acetamido]pyridin-2-yl}acetamide]
18 | 95% | 745 nM | CC(=O)N(c1cc(NC(=O)Cc2cccc(C(F)(F)F)c2Cl)ccn1)c1cc(F)ccc1Cl [Example 110, N-(2-chloro-5-fluorophenyl)-N-(4-{2-[2-chloro-3-(trifluoromethyl)phenyl]acetamido}pyridin-2-yl)acetamide]
19 | 96% | 391 nM | CC(=O)N(c1cc(NC(=O)Cc2ccccc2Cl)ccn1)c1ccccc1F [Example 115, N-{4-[2-(2-chlorophenyl)acetamido]pyridin-2-yl}-N-(2-fluorophenyl)acetamide]
20 | 97% | 520 nM | CC(=O)N(c1cc(NC(=O)Cc2ccc(F)cc2Cl)ccn1)c1ccccc1F [Example 116, N-{4-[2-(2-chloro-4-fluorophenyl)acetamido]pyridin-2-yl}-N-(2-fluorophenyl)acetamide]
21 | 95% | 789 nM | CC(=O)N(c1cc(NC(=O)Cc2cccc(F)c2Cl)ccn1)c1ccccc1F [Example 117, N-{4-[2-(2-chloro-3-fluorophenyl)acetamido]pyridin-2-yl}-N-(2-fluorophenyl)acetamide]
22 | 94% | 545 nM | CC(=O)N(c1cc(NC(=O)Cc2c(Cl)cccc2Cl)ccn1)c1ccccc1F [Example 118, N-{4-[2-(2,6-dichlorophenyl)acetamido]pyridin-2-yl}-N-(2-fluorophenyl)acetamide]
23 | 101% | 941 nM | CC(=O)N(c1cc(NC(=O)Cc2cccc(F)c2Cl)ccn1)c1ccc(C(F)(F)F)cc1F [Example 119, N-{4-[2-(2-chloro-3-fluorophenyl)acetamido]pyridin-2-yl}-N-[2-fluoro-4-(trifluoromethyl)phenyl]acetamide]
24 | 102% | 871 nM | CC(=O)N(c1cc(NC(=O)Cc2c(Cl)cccc2Cl)ccn1)c1ccc(C(F)(F)F)cc1F [Example 120, N-{4-[2-(2,6-dichlorophenyl)acetamido]pyridin-2-yl}-N-[2-fluoro-4-(trifluoromethyl)phenyl]acetamide]
25 | 97% | 843 nM | CC(=O)N(c1cc(NC(=O)Cc2cccc(C(F)(F)F)c2Cl)ccn1)c1cccc(F)c1F [Example 121, N-(4-{2-[2-chloro-3-(trifluoromethyl)phenyl]acetamido}pyridin-2-yl)-N-(2,3-difluorophenyl)acetamide]
26 | 95% | 357 nM | CC(=O)N(c1cc(NC(=O)Cc2ccccc2Cl)ccn1)c1cccc(F)c1F [Example 122, N-{4-[2-(2-chlorophenyl)acetamido]pyridin-2-yl}-N-(2,3-difluorophenyl)acetamide]
